According to ChEMBL document CHEMBL1134673, “Modeling of poly(ADP-ribose)polymerase (PARP) inhibitors. Docking of ligands and quantitative structure-activity relationship analysis” (J Med Chem, 2001):

Columns and labels:
[1] = molecular target: Poly [ADP-ribose] polymerase 1 (Homo sapiens, UniProt P09874)
Description: The compound was tested for poly(ADP-ribose)-polymerase (PARP) inhibition

[2] = poly(ADP-ribose)-polymerase (PARP) inhibition

Sequence of Poly [ADP-ribose] polymerase 1 (P09874 whole entry): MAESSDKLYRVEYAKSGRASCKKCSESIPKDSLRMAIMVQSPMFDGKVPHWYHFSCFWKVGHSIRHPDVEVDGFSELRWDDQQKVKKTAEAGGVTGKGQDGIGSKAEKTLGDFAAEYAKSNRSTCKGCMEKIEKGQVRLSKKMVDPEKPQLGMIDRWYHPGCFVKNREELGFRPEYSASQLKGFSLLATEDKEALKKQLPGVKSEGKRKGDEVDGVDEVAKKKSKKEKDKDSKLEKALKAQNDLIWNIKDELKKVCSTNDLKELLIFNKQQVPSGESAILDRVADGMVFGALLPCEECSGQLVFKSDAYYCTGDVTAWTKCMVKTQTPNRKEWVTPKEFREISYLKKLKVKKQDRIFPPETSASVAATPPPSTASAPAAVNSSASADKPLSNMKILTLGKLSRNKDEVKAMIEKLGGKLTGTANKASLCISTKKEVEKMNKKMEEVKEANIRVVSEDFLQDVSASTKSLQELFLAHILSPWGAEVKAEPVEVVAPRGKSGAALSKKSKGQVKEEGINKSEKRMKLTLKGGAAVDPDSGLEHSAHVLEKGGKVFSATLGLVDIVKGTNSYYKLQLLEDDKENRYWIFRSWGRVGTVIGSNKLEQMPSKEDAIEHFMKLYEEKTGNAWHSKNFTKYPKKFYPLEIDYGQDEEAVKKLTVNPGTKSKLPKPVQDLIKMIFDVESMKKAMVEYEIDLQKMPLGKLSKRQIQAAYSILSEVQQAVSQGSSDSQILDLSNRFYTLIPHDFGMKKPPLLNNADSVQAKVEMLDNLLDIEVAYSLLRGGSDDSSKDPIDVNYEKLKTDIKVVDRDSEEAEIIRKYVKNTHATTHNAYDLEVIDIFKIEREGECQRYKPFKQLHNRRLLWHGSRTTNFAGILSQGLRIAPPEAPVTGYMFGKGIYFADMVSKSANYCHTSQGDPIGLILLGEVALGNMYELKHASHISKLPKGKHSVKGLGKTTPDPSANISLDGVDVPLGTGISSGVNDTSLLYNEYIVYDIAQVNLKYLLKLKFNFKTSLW

Structure (SMILES) | IC50 [1] [µM] | IC50 [2] [µM]
NC(=O)c1ccc(Cl)cc1 | 300 | 
CN(C)c1cccc(C(N)=O)c1 | 120 | 
Cc1cccc(C(N)=O)c1 | 19 | 
NC(=O)c1ccc(O)cc1 | 280 | 
Cc1cccc2c(O)nc(-c3ccccc3)nc12 |  | 0.87
NC(=O)c1ccc(F)cc1 | 200 | 
NC(=O)c1cccc(F)c1 | 20 | 
NC(=O)c1ccc(N)cc1 | 1800 | 
NC(=O)c1cccc([N+](=O)[O-])c1 | 160 | 
NC(=O)c1ccc(Br)cc1 | 2200 | 
NC(=O)c1cccc(O)c1 | 9.1 | 
O=c1[nH]c2ccccc2c2ccccc12 | 0.3 | 
O=c1[nH]c2ccc([N+](=O)[O-])cc2c2ccccc12 | 0.35 | 
NC(=O)c1ccccc1 [BENZAMIDE] | 22 | 
O=c1[nH]ncc2ccccc12 [PHTHALAZINONE] | 12 | 
O=c1[nH]cnc2ccccc12 [QUINAZOLINONE] | 9.5 | 

Further lines, results first:

IC50 [1] [µM] | IC50 [2] [µM] | Structure (SMILES)
 | 0.27 | Cc1cccc2c(O)nc(-c3ccc(C#N)cc3)nc12
 | 39 | COc1cccc2c(O)nc(-c3ccc(C(F)(F)F)cc3)nc12
 | 0.85 | COc1cccc2c(O)nc(-c3ccc([N+](=O)[O-])cc3)nc12
 | 0.22 | Cc1cccc2c(O)nc(-c3ccc(O)cc3)nc12
 | 0.52 | Nc1ccc(-c2nc(O)c3cccc(O)c3n2)cc1
 | 4.2 | COc1cccc2c(O)nc(-c3ccccc3)nc12
 | 0.19 | COc1ccc(-c2nc(O)c3cccc(C)c3n2)cc1
 | 0.23 | O=[N+]([O-])c1ccc(-c2nc(O)c3cccc(O)c3n2)cc1
 | 1.34 | COc1cccc2c(O)nc(-c3ccc(C#N)cc3)nc12
 | 0.44 | Cc1cccc2c(O)nc(-c3ccc(N)cc3)nc12
